Assay results: patent US10202360B2 (CELGENE QUANTICEL RESEARCH, INC., priority 2016, dated 2019)

Molecular target: CREBBP (Homo sapiens (Human), UniProt Q92793)
Test: In vitro enzyme inhibition assay - CREBBP inhibition (AlphaScreen, biotinylated H4-tetraacetyl peptide)
Assay type: binding
Conditions: Table 28; AlphaScreen, H4-tetraacetyl peptide
How it was run: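 His-tagged CREBBP expressed in E. coli (50 nM final) incubated with biotinylated H4K5/8/12/16(Ac) peptide (20 nM final) in HEPES pH 7.3 buffer, 0.4% DMSO, 20 min at room temperature.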

CREBBP, sequence (Q92793 1081-1197): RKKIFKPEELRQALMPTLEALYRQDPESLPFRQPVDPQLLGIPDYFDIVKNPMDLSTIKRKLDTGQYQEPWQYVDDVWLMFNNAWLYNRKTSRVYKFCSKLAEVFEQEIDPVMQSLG

Row | Structure (SMILES) | IC50 [nM]
1 | CCS(=O)(=O)Nc1cc(-c2ccc(=O)n(C)c2)nc(OC(C)C)n1 [Example 236, Ethanesulfonic acid [2-isopropoxy-6-(1-methyl-6-oxo-1,6-dihydro-pyridin-3-yl)-pyrimidin-4-yl]-amide] | < 500
2 | CCCS(=O)(=O)Nc1cc(-c2ccc(=O)n(C)c2)nc(OC(C)C)n1 [Example 237, Propane-1-sulfonic acid [2-isopropoxy-6-(1-methyl-6-oxo-1,6-dihydro-pyridin-3-yl)-pyrimidin-4-yl]-amide] | < 500
3 | CCS(=O)(=O)Nc1cc(-c2ccc(=O)n(C)c2)nc(Oc2c(F)cccc2C2CC2)n1 [Example 238, Ethanesulfonic acid [2-(2-cyclopropyl-6-fluoro-phenoxy)-6-(1-methyl-6-oxo-1,6-dihydro-pyridin-3-yl)-pyrimidin-4-yl]-amide] | < 500
4 | CCCS(=O)(=O)Nc1cc(-c2ccc(=O)n(C)c2)nc(Oc2c(F)cccc2C2CC2)n1 [Example 239, Propane-1-sulfonic acid [2-(2-cyclopropyl-6-fluoro-phenoxy)-6-(1-methyl-6-oxo-1,6-dihydro-pyridin-3-yl)-pyrimidin-4-yl]-amide] | < 500
5 | CCCCS(=O)(=O)Nc1cc(-c2ccc(=O)n(C)c2)nc(Oc2c(F)cccc2C2CC2)n1 [Example 240, Butane-1-sulfonic acid [2-(2-cyclopropyl-6-fluoro-phenoxy)-6-(1-methyl-6-oxo-1,6-dihydro-pyridin-3-yl)-pyrimidin-4-yl]-amide] | < 500
6 | CCCC(C)S(=O)(=O)Nc1cc(-c2ccc(=O)n(C)c2)nc(Oc2c(C)cccc2F)n1 (stereo not drawn) [Example 241, Pentane-2-sulfonic acid [2-(2-fluoro-6-methyl-phenoxy)-6-(1-methyl-6-oxo-1,6-dihydro-pyridin-3-yl)-pyrimidin-4-yl]-amide] | < 500
7 | CCCC(C)S(=O)(=O)Nc1cc(-c2ccc(=O)n(C)c2)nc(Oc2c(F)cccc2Cl)n1 (stereo not drawn) [Example 242, Pentane-2-sulfonic acid [2-(2-chloro-6-fluoro-phenoxy)-6-(1-methyl-6-oxo-1,6-dihydro-pyridin-3-yl)-pyrimidin-4-yl]-amide] | < 500
8 | CCCC(C)S(=O)(=O)Nc1cc(-c2ccc(=O)n(C)c2)nc(Oc2c(C)cccc2Cl)n1 (stereo not drawn) [Example 243, Pentane-2-sulfonic acid [2-(2-chloro-6-methyl-pphenoxy)-6-(1-methyl-6-oxo-1,6-dihydro-pyridin-3-yl)-pyrimidin-4-yl]-amide] | < 500
9 | CCCCS(=O)(=O)Nc1cc(-c2ccc(=O)n(C)c2)nc(OC2CCCCC2)n1 [Example 244, Butane-1-sulfonic acid [2-cyclohexyloxy-6-(1-methyl-6-oxo-1,6-dihydro-pyridin-3-yl)-pyrimidin-4-yl]-amide] | < 500
10 | CCCS(=O)(=O)Nc1cc(-c2ccc(=O)n(C)c2)nc(OC2CCCCC2)n1 [Example 245, Propane-1-sulfonic acid [2-cylcohexyloxy-6-(1-methyl-6-oxo-1,6-dihydro-pyridin-3-yl)-pyrimidin-4-yl]-amide] | < 500
11 | CCS(=O)(=O)Nc1cc(-c2ccc(=O)n(C)c2)nc(OC2CCCCC2)n1 [Example 246, Ethanesulfonic acid [2-cylcohexyloxy-6-(1-methyl-6-oxo-1,6-dihydro-pyridin-3-yl)-pyrimidin-4-yl]-amide] | < 500
12 | CC(C)S(=O)(=O)Nc1cc(-c2ccc(=O)n(C)c2)nc(OC2CCCCC2)n1 [Example 247, Propane-2-sulfonic acid [2-cylcohexyloxy-6-(1-methyl-6-oxo-1,6-dihydro-pyridin-3-yl)-pyrimidin-4-yl]-amide] | < 500
13 | Cc1cccc(F)c1Oc1nc(NS(=O)(=O)CCC(C)C)cc(-c2ccc(=O)n(C)c2)n1 [Example 248, 3-Methyl-butane-1-sulfonic acid [2-(2-fluoro-6-methyl-phenoxy)-6-(1-methyl-6-oxo-1,6-dihydro-pyridin-3-yl)-pyrimidin-4-yl]-amide] | < 500
14 | CCCCS(=O)(=O)Nc1cc(-c2cc(C)c(=O)n(C)c2)nc(OC2CCCCC2)n1 [Example 249, Butane-1-sulfonic acid [2-cyclohexyloxy-6-(1,5-dimethyl-6-oxo-1,6-dihydro-pyridin-3-yl)-pyrimidin-4-yl]-amide] | < 500
15 | Cc1cc(-c2cc(NS(=O)(=O)C(C)C)nc(OC3CCCCC3)n2)cn(C)c1=O [Example 250, Propane-2-sulfonic acid [2-cyclohexyloxy-6-(1,5-dimethyl-6-oxo-1,6-dihydro-pyridin-3-yl)-pyrimidin-4-yl]-amide] | < 500
16 | CC(C)CCS(=O)(=O)Nc1cc(-c2ccc(=O)n(C)c2)nc(Oc2c(F)cccc2Cl)n1 [Example 251, 3-Mehtyl-butane-1-sulfonic acid [2-(2-chloro-6-fluoro-phenoxy)-6-(1-methyl-6-oxo-1,6-dihydro-pyridin-3-yl)-pyrimidin-4-yl]-amide] | < 500
17 | Cc1cccc(Cl)c1Oc1nc(NS(=O)(=O)CCC(C)C)cc(-c2ccc(=O)n(C)c2)n1 [Example 252, 3-Methyl-butane-1-sulfonic acid [2-(2-chloro-6-methyl-phenoxy)-6-(1-methyl-6-oxo-1,6-dihydro-pyridin-3-yl)-pyrimidin-4-yl]-amide] | < 500
18 | CCC(CC)S(=O)(=O)Nc1cc(-c2ccc(=O)n(C)c2)nc(Oc2c(C)cccc2F)n1 [Example 253, Pentane-3-sulfonic acid [2-(2-fluoro-6-methyl-pphenoxy)-6-(1-methyl-6-oxo-1,6-dihydro-pyridin-3-yl)-pyrimidin-4-yl]-amide] | < 500
19 | CCC(CC)S(=O)(=O)Nc1cc(-c2ccc(=O)n(C)c2)nc(Oc2c(F)cccc2Cl)n1 [Example 254, Pentane-3-sulfonic acid [2-(2-chloro-6-fluoro-phenoxy)-6-(1-methyl-6-oxo-1,6-dihydro-pyridin-3-yl)-pyrimidin-4-yl]-amide] | < 500
20 | CCCCS(=O)(=O)Nc1cc(-c2ccc(=O)n(C)c2)nc(Oc2c(F)ccc(C)c2Cl)n1 [Example 255, Butane-1-sulfonic acid [2-(2-chloro-6-fluoro-3-methyl-phenoxy)-6-(1-methyl-6-oxo-1,6-dihydro-pyridin-3-yl)-pyrimidin-4-yl]-amide] | < 500
21 | Cc1ccc(F)c(Oc2nc(NS(=O)(=O)C(C)C)cc(-c3ccc(=O)n(C)c3)n2)c1Cl [Example 256, Propane-2-sulfonic acid [2-(2-chloro-6-fluoro-3-methyl-phenoxy)-6-(1-methyl-6-oxo-1,6-dihydro-pyridin-3-yl)-pyrimidin-4-yl]-amide] | < 500
22 | CCCCS(=O)(=O)Nc1cc(-c2ccc(=O)n(C)c2)nc(Oc2c(F)ccc(C)c2F)n1 [Example 257, Butane-1-sulfonic acid [2-(2,6-difluoro-3-methyl-phenoxy)-6-(1-methyl-6-oxo-1,6-dihydro-pyridin-3-yl)-pyrimidin-4-yl]-amide] | < 500
23 | CCCCS(=O)(=O)Nc1cc(-c2ccc(=O)n(C)c2)nc(Oc2c(Cl)ccc(C)c2F)n1 [Example 258, Butane-1-sulfonic acid [2-(6-chloro-2-fluoro-3-methyl-phenoxy)-6-(1-methyl-6-oxo-1,6-dihydro-pyridin-3-yl)-pyrimidin-4-yl]-amide] | < 500
24 | CCC(CC)S(=O)(=O)Nc1cc(-c2ccc(=O)n(C)c2)nc(Oc2c(C)cccc2Cl)n1 [Example 259, Pentane-3-sulfonic acid [2-(2-chloro-6-methyl-phenoxy)-6-(1-methyl-6-oxo-1,6-dihydro-pyridin-3-yl)-pyrimidin-4-yl]-amide] | < 500
